Among the data in ChEMBL document CHEMBL5042490, “Lead derivatization of ethyl 6-bromo-2-((dimethylamino)methyl)-5-hydroxy-1-phenyl-1H-indole-3-carboxylate and 5-bromo-2-(thiophene-2-carboxamido) benzoic acid as FabG inhibitors targeting ESKAPE pathogens” (Eur J Med Chem, 2022) are IC50 values, retold here.

Experiment [1] is described as follows: Inhibition of Klebsiella pneumoniae FabG1 assessed as reduction in Acetoacetyl-coenzyme-A substrate in presence of NADPH preincubated for 5 mins followed by substrate addition and measured for 6 to 10 mins by spectrophotometric analysis.
Experiment [2] can be described thus: Inhibition of Escherichia coli FabG assessed as reduction in Acetoacetyl-coenzyme-A substrate in presence of NADPH preincubated for 5 mins followed by substrate addition and measured for 6 to 10 mins by spectrophotometric analysis.
Experiment [3] can be described thus: Inhibition of Acinetobacter baumannii FabG assessed as reduction in Acetoacetyl-coenzyme-A substrate in presence of NADPH preincubated for 5 mins followed by substrate addition and measured for 6 to 10 mins by spectrophotometric analysis.
A short description of experiment [4]: Inhibition of Salmonella typhimurium FabG assessed as reduction in Acetoacetyl-coenzyme-A substrate in presence of NADPH preincubated for 5 mins followed by substrate addition and measured for 6 to 10 mins by spectrophotometric analysis. Set-up: species or system Salmonella enterica subsp. enterica serovar Typhimurium.
A short description of experiment [5]: Inhibition of Staphylococcus aureus FabG assessed as reduction in Acetoacetyl-coenzyme-A substrate in presence of NADPH preincubated for 5 mins followed by substrate addition and measured for 6 to 10 mins by spectrophotometric analysis.
Experiment [6] can be described thus: Inhibition of Pseudomonas aeruginosa FabG assessed as reduction in Acetoacetyl-coenzyme-A substrate in presence of NADPH preincubated for 5 mins followed by substrate addition and measured for 6 to 10 mins by spectrophotometric analysis.
Experiment [7] in a line: Inhibition of Klebsiella pneumoniae FabG2 assessed as reduction in Acetoacetyl-coenzyme-A substrate in presence of NADH preincubated for 5 mins followed by substrate addition and measured for 6 to 10 mins by spectrophotometric analysis.
A short description of experiment [8]: Inhibition of Mycobacterium tuberculosis FabG assessed as reduction in Acetoacetyl-coenzyme-A substrate in presence of NADPH preincubated for 5 mins followed by substrate addition and measured for 6 to 10 mins by spectrophotometric analysis.

With `CCOC(=O)c1c(CSc2nc3ccccc3o2)n(C)c2cc(Br)c(O)cc12`, the IC50 result was “Not Active” in experiment [1]; 18.6 µM in experiment [2] (read-out: IC50); “Not Active” in experiment [3]; “Not Active” in experiment [4]; “Not Active” in experiment [5]; “Not Active” in experiment [6]. The IC50 result in experiment [7] is given as “Not Active”.

Consider `O=C(Nc1ccc(Br)cc1C(=O)O)c1cccc(I)c1`, for which the IC50 entry in experiment [1] is “Not Active”; in experiment [2] (read-out: IC50) it was 21.6 µM; in experiment [3] (read-out: IC50), 15.7 µM; in experiment [4] (read-out: IC50) it was 37.4 µM; in experiment [5], “Not Active”; in experiment [8] (read-out: IC50), 14.7 µM. Moreover, the IC50 result in experiment [6] and in experiment [7] was “Not Active” in each case.

Turning to `O=C(CCBr)Nc1ccc(Br)cc1C(=O)O`, the IC50 entry is “Not Active” in experiment [1]; “Not Active” in experiment [2]; “Not Active” in experiment [3]; “Not Active” in experiment [4]; “Not Active” in experiment [5]; 78.3 µM in experiment [8] (read-out: IC50). For the same compound, the IC50 result in experiment [6] and in experiment [7] was “Not Active” in each case.

Turning to `O=C(O)c1cc(Br)ccc1NC(=O)c1cccnc1Cl`, the IC50 entry in experiment [1] was “Not Active”; in experiment [2] (read-out: IC50), 15.9 µM; in experiment [3], “Not Active”; in experiment [4] (read-out: IC50), 51 µM; in experiment [5], “Not Active”; in experiment [6] it was “Not Active”. The IC50 result in experiment [7] was “Not Active”.

Take `CCOC(=O)c1c(CSc2nc3ccccc3s2)n(C)c2cc(Br)c(O)cc12`: the IC50 result was “Not Active” in experiment [1]; 31.8 µM in experiment [2] (read-out: IC50); “Not Active” in experiment [3]; “Not Active” in experiment [4]; “Not Active” in experiment [5]; “Not Active” in experiment [6]. Besides, the IC50 entry in experiment [7] is listed as “Not Active”.

Consider `CCOC(=O)c1c(CSc2nc3ccccc3s2)n(Cc2ccccc2)c2cc(Br)c(O)cc12`, for which the IC50 result in experiment [1] is “Not Active”; in experiment [2] (read-out: IC50), 20.8 µM; in experiment [3], “Not Active”; in experiment [4] it was “Not Active”; in experiment [5], “Not Active”; in experiment [8] it was “Not Active”. In addition, the IC50 result in experiment [6] and in experiment [7] was “Not Active” in each case.

`Cc1c(Br)cccc1C(=O)Nc1ccc(Br)cc1C(=O)O`: the IC50 result in experiment [1] is “Not Active”; in experiment [2], “Not Active”; in experiment [3] (read-out: IC50), 36.7 µM; in experiment [4], “Not Active”; in experiment [5], “Not Active”; in experiment [6], “Not Active”. For the same compound, the IC50 result in experiment [7] is listed as “Not Active”.
